Biological target: T1, human calcium receptor (Homo sapiens, UniProt P41180)
T1 construct: expressed in transfected cells; host or cells: Xenopus laevis oocytes microinjected with cRNA; gene amplified by PCR from human kidney cDNA (Clontech)
T1 sequence (P41180 20-1078): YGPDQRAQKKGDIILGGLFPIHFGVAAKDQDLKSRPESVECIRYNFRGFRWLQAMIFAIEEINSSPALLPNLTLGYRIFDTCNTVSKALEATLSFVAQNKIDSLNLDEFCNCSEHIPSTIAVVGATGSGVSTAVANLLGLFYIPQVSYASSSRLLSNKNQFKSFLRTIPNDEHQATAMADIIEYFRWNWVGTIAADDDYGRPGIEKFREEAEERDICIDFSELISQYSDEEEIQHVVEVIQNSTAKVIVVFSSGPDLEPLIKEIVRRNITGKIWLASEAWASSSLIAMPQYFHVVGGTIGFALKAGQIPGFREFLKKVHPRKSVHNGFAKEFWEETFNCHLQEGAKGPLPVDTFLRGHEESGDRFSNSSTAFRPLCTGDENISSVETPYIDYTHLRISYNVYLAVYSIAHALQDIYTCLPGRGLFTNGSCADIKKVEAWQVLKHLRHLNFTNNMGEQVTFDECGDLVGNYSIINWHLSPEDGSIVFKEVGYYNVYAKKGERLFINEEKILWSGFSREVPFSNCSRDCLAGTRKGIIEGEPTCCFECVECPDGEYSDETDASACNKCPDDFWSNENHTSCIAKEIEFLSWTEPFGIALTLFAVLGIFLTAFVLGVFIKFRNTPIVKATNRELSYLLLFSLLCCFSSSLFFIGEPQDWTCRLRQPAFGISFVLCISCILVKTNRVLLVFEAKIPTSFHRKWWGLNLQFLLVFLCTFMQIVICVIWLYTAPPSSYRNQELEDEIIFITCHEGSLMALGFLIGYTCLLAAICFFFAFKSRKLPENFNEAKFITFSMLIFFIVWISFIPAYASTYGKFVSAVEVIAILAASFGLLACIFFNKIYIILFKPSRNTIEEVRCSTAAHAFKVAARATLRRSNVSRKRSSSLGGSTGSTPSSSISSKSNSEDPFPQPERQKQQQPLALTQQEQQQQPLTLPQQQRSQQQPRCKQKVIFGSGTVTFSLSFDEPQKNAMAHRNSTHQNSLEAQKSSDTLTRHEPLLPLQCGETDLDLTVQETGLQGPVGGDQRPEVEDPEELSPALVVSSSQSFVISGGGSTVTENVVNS
Test: Calcium receptor activation activity: Ca ion concentration-dependent Cl ionic current in Xenopus laevis oocyte expression system
Type: cell-based
Experimental: To evaluate calcium receptor activation activity, a Ca ion concentration-dependent Cl ionic current measuring method using a Xenopus laevis oocyte expression system was used. If each activator is added to Xenopus laevis oocytes expressing the calcium receptor, intracellular Ca ions increase. Then, the Ca ion concentration-dependent Cl channel opens, and the intracellular current value changes as an ionic current. By measuring the change in this intracellular current value, the presence or absence of calcium receptor activation activity can be determined.
Specifically, the abdomen of Xenopus laevis was opened, and an egg batch was taken out and treated with a 1% collagenase solution at 20° C. for 2 hours to obtain individual oocytes. Into the oocytes, 50 nl of 1 μg/μl receptor cRNA or 50 nl of sterilized water per oocyte was introduced by using a micro glass capillary, and the oocytes were cultured at 18° C. for 2 or 3 days. For the culture, a solution obtained by adding 2 mM pyruvic acid, 10 U/ml of penicillin, and 10 μg/ml of streptomycin to the solution in Example 2 was used. After the culture, a test solution was added to the oocytes containing either the cRNA or sterilized water. Electrophysiological measurement was performed by using an amplifier, Geneclamp500 (Axon), and recording software, AxoScope 9.0 (Axon). The oocytes were voltage-clamped at −70 mV by the double electrode voltage clamp method, and the intracellular current was measured via the Ca ion concentration-dependent Cl ion channel. The maximum value of the intracellular current was considered as the response current value.
Calcium receptor activation activity of L-amino acids was evaluated by using the method described in Example 13. That is, oocytes containing either cRNA of the calcium receptor or sterilized water were prepared, and voltage-clamped at −70 mV by the double electrode voltage clamp method. To the voltage-clamped oocytes, alanine (10 mM), arginine (10 mM), asparagine (10 mM), aspartic acid (10 mM), cysteine (10 mM), glutamine (10 mM), glutamic acid (10 mM), glycine (10 mM), histidine (10 mM), isoleucine (10 mM), leucine (10 mM), lysine (10 mM), methionine (10 mM), phenylalanine (10 mM), proline (10 mM), serine (10 mM), threonine (10 mM), tryptophan (10 mM), tyrosine (10 mM), valine (10 mM), ornithine (10 mM), taurine (10 mM), or hydroxyproline (10 mM) was added, and Ca ion concentration-dependent Cl response current was measured. […] As for the aforementioned amino acids, the activation activity was reported in Proc. Natl. Acad. Sci. USA, 2000 Apr. 25, 97(9):4814-9.
Calcium receptor activation activity of D-cysteine was evaluated by using the method described in Example 13. That is, oocytes containing either cRNA of the calcium receptor or sterilized water were prepared, and voltage-clamped at −70 mV by the double electrode voltage clamp method. To the voltage-clamped oocytes, D-cysteine (10 mM), L-cysteine (10 mM), D-tryptophan (10 mM), or L-tryptophan (10 mM) was added, and Ca ion concentration-dependent Cl response current was measured.
Calcium receptor activation activity of peptides was evaluated by using the method described in Example 13. That is, oocytes containing either cRNA of the calcium receptor or sterilized water were prepared, and voltage-clamped at −70 mV by the double electrode voltage clamp method.
Calcium receptor activation activity of peptides was evaluated in the same manner as that of Example 17. Each of the peptides shown in Table 2 was added to voltage-clamped oocytes at 1000 μM, 300 μM, 100 μM, 30 μM, 10 μM, 3 μM, 1 μM, 0.3 μM, and 0.1 μM, and Ca ion concentration-dependent Cl response current was measured.

| SMILES | Activity (lowest concentration for which current was detected) (added at 1000, 300, 100, 30, 10, 3, 1, 0.3 and 0.1 μM) [µM] | calcium receptor activation activity (Ca ion concentration-dependent Cl response current) (50 μM peptide, oocytes voltage-clamped at −70 mV) |
| --- | --- | --- |
| CC(C)[C@H](NC(=O)CC[C@H](N)C(=O)O)C(=O)NCC(=O)O [γ-Glu-Val-Gly] | 0.1 |  |
| N[C@@H](CCC(=O)N[C@@H](CS)C(=O)NCC(=O)O)C(=O)O [γ-Glu-Cys-Gly, reference compound] |  | definitive calcium receptor activation activity |
